In general, MBC refers to the lowest tested concentration that kills the bacteria rather than only halting them. Read a high MBC as less potent killing. For orientation: MIC means the least concentration at which growth counts as inhibited. A low value points to inhibition by little substance.

Consider two compounds from patent publication US12342819B2, “Elasnin, a bacteriostatic agent that has potent antibiofilm activities against both mono- and multi-species biofilm” (The Hong Kong University of Science and Technology, priority 2019, dated 2025).

In brackets after ≈: the same amount, converted by molar mass. Several values for one entry are separate records, joined by “and”; a condition that tells them apart may be missing. Identical values can stand only once.

The subject of test [1] is chymotrypsin. To be noted: cited from earlier work.
Test [2] deals with MRSA ATCC 43300. Put plainly: Concentration response curve study (CFU counting of planktonic cells). The conditions noted are these: 24 hours; vancomycin 0 to 50 μg/ml, elasnin 0 to 100 μg/ml. Type of test: cell-based, Methicillin-resistant Staphylococcus aureus. Here is the method:
MRSA ATCC 43300 was used for concentration response curve study. 4×10^5 CFU/ml of exponentially growing MRSA was inoculated into MHB with various concentrations of elasnin and vancomycin in 15 ml falcon tubes. The tubes were incubated at 37° C. on a rotary shaker for 24 hours; 1 ml of culture broth in each tube was diluted with MHB and 1 ml diluted bacteria was plated on MHA plates for the CFU counting. Each concentration was plated on two plates and the experiments were repeated 3-times.

The test system of test [3] is trypsin. The conditions noted are these: cited from earlier work.
The subject of test [4] is MRSA ATCC 43300. Description: MBIC assay (biofilm inhibition, MTT). Format: cell-based, Methicillin-resistant Staphylococcus aureus. The conditions noted are these: minimum concentration inhibiting 90% biofilm formation. Here is the method: (§1) Minimum biofilm inhibitory concentrations (MBICs) and minimum biofilm eradication concentrations (MBECs) were determined as previously described (30, 31).
(§2) An overnight culture of the testing strains was diluted into approximately 10^7 with LB and 0.5% glucose and treated with various concentrations of Elasnin in 96-well cell culture plates. Culture broth was then incubated at 37° C. for 24 hours and rinsed twice by 1×PBS to remove non-adhering and planktonic cells. After the wash, MTT staining assay was conducted to measure viable cells in the biofilm since the MTT can react with activated succinate dehydrogenase in viable cell mitochondria to form blue violet formazan, which can be read at 570 nm after being dissolved in DMSO.

Test [5] relates to MRSA ATCC 43300. Description: MBEC assay (eradication of pre-formed biofilm, MTT). Type of test: cell-based, Methicillin-resistant Staphylococcus aureus. The conditions noted are these: concentration eradicating 50% of mature biofilm within 24 hours. Here is the method: as §1
(§3) The ability of Elasnin to eradicate pre-formed mature biofilm was tested through a MBEC assay. Similar to MBIC assay, an overnight culture of testing strains was incubated for 24 hours in 96-well cell culture plates but without adding Elasnin to form biofilm. Formed biofilm was then rinsed twice by 1×PBS and challenged with a series concentration of Elasnin (diluted with LB and 0.5% glucose) and incubated for another 24 hours at 37° C. After incubation, each well was rinsed twice by 1×PBS and MTT assay was conducted to measure viable cells in remaining biofilm.

Test [6] relates to P. aeruginosa PAO1. Put plainly: MBEC assay. Format: cell-based. To be noted: viability of biofilm cells constant as concentration increased. The protocol:
as §1, §3

Test [7] deals with S. aureus ATCC 25923. Description: MBEC assay. To be noted: S. aureus ATCC 25923, 50% eradication of mature biofilm. Format: cell-based. The protocol:
as §1, §3

Test [8] deals with Bacillus subtilis 168. Put plainly: MBEC assay. Format: cell-based. The conditions noted are these: 50% eradication of mature biofilm. The protocol: as §1, §3
Test [9] concerns E. coli ATCC 25922. Put plainly: MBEC assay. Type of test: cell-based. To be noted: viability of biofilm cells constant as concentration increased. Here is the method:
as §1, §3

The subject of test [10] is S. aureus B04. Description: MBEC assay. Format: cell-based. To be noted: S. aureus B04, 50% eradication of mature biofilm. Here is the method: as §1, §3
Test [11] relates to pancreatic elastase. To be noted: cited from earlier work.
Test [12] has as its system MRSA biofilms. Description: CLSM observation with biofilm cell and matrix staining. Format: cell-based, Methicillin-resistant Staphylococcus aureus. The conditions noted are these: elasnin 4 μg/mL. The protocol:
Biofilms were grown on glass cover slides as described for the MBIC and MBEC assays. Treated biofilms were then rinsed twice with 1×PBS and stained with FilmTracer™ FM® 1-43 green biofilm cell stain and FilmTracer™ SYPRO® Ruby Biofilm Matrix Stain at room temperature for 30 min in the dark. Leica Sp8 Confocal Microscope was employed to observe cells and matrix in the biofilm at 488 nm.

Test [13] relates to P. aeruginosa PAO1. Description: MBIC assay. Type of test: cell-based. To be noted: even at 100 μg/ml. The protocol: as §1, §2
In test [14] the test system is S. aureus ATCC 25923. Put plainly: MBIC assay. Format: cell-based. The conditions noted are these: S. aureus ATCC 25923, 90% reduction of biofilm formation. Here is the method:
as §1, §2

Test [15] has as its system Bacillus subtilis 168. Description: MBIC assay. Format: cell-based. Here is the method: as §1, §2
Test [16] deals with E. coli ATCC 25922. Put plainly: MBIC assay. Format: cell-based. The conditions noted are these: even at 100 μg/ml. Here is the method:
as §1, §2

Test [17] concerns S. aureus B04. Description: MBIC assay. Type of test: cell-based. The conditions noted are these: S. aureus B04, 90% reduction of biofilm formation. Here is the method:
as §1, §2

The subject of test [18] is MRSA ATCC 43300. Description: Minimum bactericidal concentration (MBC). Type of test: cell-based, Methicillin-resistant Staphylococcus aureus. The protocol:
(§4) Minimum inhibitory concentrations (MICs) and minimum bactericidal concentrations (MBCs) were determined with MRSA ATCC 43300 and E. coli ATCC 25922, according to the Clinical and Laboratory Standards Institute guideline CLSI M100 (2018). Approximately 10^5 CFU/ml overnight culture of the bacteria strains were inoculated into MHB and treated with series concentrations of Elasnin (or crude extracts and antibiotics). […] MBCs were measured following the MIC assay by plating 1 ml suitable diluted culture broth from each well on Mueller Hinton Agar (MHA) plate. The MBCs were defined as lowest concentration at which antimicrobial agent caused >99.9% reduction of cells. Each assay was done in duplicates and repeated 3 times.

Test [19] concerns the target T1, human granulocyte elastase (Homo sapiens, UniProt P08246).
T1 sequence (P08246 30-267): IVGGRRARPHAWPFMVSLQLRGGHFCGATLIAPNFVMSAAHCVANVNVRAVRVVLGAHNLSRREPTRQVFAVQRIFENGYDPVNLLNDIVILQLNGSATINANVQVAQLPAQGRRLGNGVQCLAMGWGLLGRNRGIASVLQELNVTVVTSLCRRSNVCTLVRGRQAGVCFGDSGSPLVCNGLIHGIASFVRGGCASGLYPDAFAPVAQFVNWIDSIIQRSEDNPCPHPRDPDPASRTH
To be noted: cited from earlier work.

In test [20] the test system is MRSA ATCC 43300. Description: Minimum inhibitory concentration (MIC), CLSI M100. To be noted: Staphylococcus aureus, 24 h. Type of test: cell-based, Methicillin-resistant Staphylococcus aureus. The protocol: as §4
Setting [21] is: biofilm eradication assay, pre-formed biofilm, 18 hr.
The mark [22] stands for this setting: biofilm inhibition assay, 24 hr, vs untreated.

On to `CCCCCC(=O)C(CCCC)c1oc(=O)c(CCCC)c(O)c1CCCC` (stereo not drawn) [elasnin], for which the activity against chymotrypsin result in test [1] is reported as “almost no activities”. Also, the “cell density versus concentration (concentration-response curve)” value in test [2] is “cell densities did not significantly differ”. In addition, the activity against trypsin result in test [3] was “almost no activities”. The MBIC in [4] fell in the range of 1.25 to 2.5 µg/mL; in [14], 1.25 to 2.5 µg/mL; in [15] (Bacillus subtilis 168, 90% reduction of biofilm formation), 2.5 to 5 µg/mL; in [17], 1.25 to 2.5 µg/mL. Moreover, the MBEC in test [5] is 1.25 µg/mL and 1.25 to 2.5 µg/mL; in [7] it was 0.625 to 1.25 µg/mL; in test [8], 1.25 to 2.5 µg/mL; in test [10], 2.5 to 5 µg/mL. Besides, the “activity in MBEC assay” value in test [6] and in test [9] was “No activity” in each case. The “activity against pancreatic elastase” value in test [11] was “almost no activities”. Further, in test [12] (setting [21]), the reduction in cells result was “over 50%”. Moreover, in test [12] (setting [21]), the reduction in matrices was > 70%. Further, the “decrease in density of cells” value in [12] (setting [22]) is given as “around 80%”. The “decrease in density of matrices” value in test [12] (setting [22]) is ~35%. In addition, the “development of biofilm formation” value in test [13] and in [16] was “not influenced” each time. The biofilms inhibited result in test [15] (Bacillus subtilis 168, elasnin 1.25 μg/ml) is listed as “at least 80%”. Besides, the MBC result in test [18] (>99.9% reduction of cells) is “above 100 μg/ml”. For the same compound, the “inhibition of human granulocyte elastase” value in test [19] was “inhibits”.
For `CN[C@H](CC(C)C)C(=O)N[C@H]1C(=O)N[C@@H](CC(N)=O)C(=O)N[C@H]2C(=O)N[C@H]3C(=O)N[C@H](C(=O)N[C@H](C(=O)O)c4cc(O)cc(O)c4-c4cc3ccc4O)[C@H](O)c3ccc(c(Cl)c3)Oc3cc2cc(c3O[C@@H]2O[C@H](CO)[C@@H](O)[C@H](O)[C@H]2O[C@H]2C[C@](C)(N)[C@H](O)[C@H](C)O2)Oc2ccc(cc2Cl)[C@H]1O` [vancomycin, reference compound], in [2], the “cell density versus concentration (concentration-response curve)” value is “sharp decrease in cell density as the concentration increased”. Moreover, the MBEC result in [5] is listed as “More than 10 μg/ml”. The MIC in test [20] lay within 0.5 to 2 mg/L (≈ 0.345 to 1.38 µM). In test [18] (Staphylococcus aureus), this compound gave an MBC of 20 to 50 mg/L (≈ 13.8 to 34.5 µM).
